Experimental data as given in patent publication US7846944B2, “Pyrazolo-pyridinone compounds and methods of use thereof” (Amgen Inc., priority 2007, dated 2010).
Where two headings read alike, the source gives them in different places.

Key:
[1] = test system: TNF-α secretion by LPS-treated THP1 cells; assay: Lipopolysaccharide-activated THP1 cell TNF production assay; format: cell-based; details: Homo sapiens, read-out: IC50 in the THP-1 cellular TNF production assay
[2] = test system: production of IL-1β, IL-6, and TNF-α by PBMC activated with LPS; assay: Lipopolysaccharide-activated PBMC cytokine production assay; format: cell-based; details: read-out: IC50 in the whole blood PMBC assay
Experimental: Lipopolysaccharide-Activated PBMC Cytokine Production Assay
Test compounds were evaluated in vitro for the ability to inhibit the production of IL-1β, IL-6, and TNF-α by PBMC activated with bacterial lipopolysaccharide (LPS). Fresh leukocytes were obtained from a local blood bank, and peripheral blood mononuclear cells (PBMCs) were isolated by density gradient centrifugation on Ficol-Paque Plus (Pharmacia).
Preparation of Test Compound Stock Solutions
All reagents were prepared in RPMI 1640+10% v/v human AB serum+1×Pens/Strep/Glu (assay medium). Test compounds were dissolved in 100% DMSO and serially diluted in 96-well polypropylene round bottom micro titer plates (drug plate). Serial dilutions were then diluted 1:250 into assay medium to a 4× working concentration. Compound serial dilutions were half-log, 10 point titrations with a final starting concentration of 1 μM.
Treatment of Cells with Test Compounds and Activation with Lipopolysaccharide
LPS was prepared to a 4× concentration in assay medium. 100 μl of PBMC (1×10^6 cells/ml) were plated in a 96-well polystyrene flat bottom micro titer tissue culture plate and incubated with 50 μl of 4× compound serial dilution for 1 hour at 37° C., 5% CO2 in a tissue culture incubator. 50 μl 4×LPS or control was added and the plates were incubated at 37° C., 5% CO2 in a tissue culture incubator for 18 hours. The final DMSO concentration was 0.1%. The total volume was 200 μL. The final LPS concentration was 100 ng/mL. After 18 hours culture supernatants were removed and IL-1β, IL-6, and TNF-α presence in the supernatants was quantified using MSD ECL based technology.
Cytokine Measurements 20 μL of culture supernatant were added to MSD plates, and incubated for one hour at room temperature. 20 μL of detection antibody diluted in antibody diluent (1 μg/mL), and 110 μL of 2× Read Buffer P was added, and incubated for one hour at RT. Electrochemiluminescence was measured using the SECTOR HTS Imager (MSD, Gaithersburg, Md.). Data Analysis
Compound IC50 values were calculated as follows: The proportion of cytokine production in the presence of compound compared to the cytokine production in the presence of the DMSO vehicle alone (Hi control) was calculated using the formula: Percent Control (POC)=(compound−average Lo)/(average Hi−average Lo)*100.

[3] = test system: Collagen-Induced Arthritis (CIA) Model in Rats; assay: Collagen-induced arthritis (CIA) model in rats; format: in vivo; details: 168 h; rat, treated for 7 days from onset of arthritis
Experimental: Collagen-Induced Arthritis (CIA) Model in Rats
Porcine type II collagen (10 mg) was dissolved in 0.1N acetic acid (5 mL) two days prior to use on a rotating plate in the refrigerator. Subsequently, collagen was emulsified 1:1 with Freund's incomplete adjuvant using an emulsification needle and glass syringes yielding a final concentration of 1 mg/mL.
Disease was induced in each animal by intradermal injection of emulsified collagen in IFA at 10 different sites (100 μL per site) over the back. […] At onset (defined as Day 0), rats were randomized to treatment groups and therapy was initiated with drug or vehicle control as noted in table above. Rats were treated for 7 days and were sacrificed on Day 8.

recombinant human p38α = recombinant human p38α (Homo sapiens, UniProt Q16539); assay: Purified and activated recombinant human p38α HTRF kinase assay; format: biochemical; details: 1 nM p38α, 50 μM ATP, GST-ATF2 substrate, read-out: p38a IC50
Sequence of recombinant human p38α (Q16539 whole entry): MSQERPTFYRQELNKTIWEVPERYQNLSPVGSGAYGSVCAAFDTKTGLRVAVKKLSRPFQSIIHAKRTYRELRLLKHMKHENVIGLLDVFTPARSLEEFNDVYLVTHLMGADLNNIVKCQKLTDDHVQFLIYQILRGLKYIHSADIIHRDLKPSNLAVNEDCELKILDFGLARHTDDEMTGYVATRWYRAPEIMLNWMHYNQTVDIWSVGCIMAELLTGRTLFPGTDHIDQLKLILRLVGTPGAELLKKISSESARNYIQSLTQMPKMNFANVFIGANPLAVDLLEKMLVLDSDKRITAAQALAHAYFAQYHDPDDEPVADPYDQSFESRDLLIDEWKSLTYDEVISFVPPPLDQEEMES

[4] = THP-1, LPS, 3 hours, THP1 cells
[5] = LPS 100 ng/mL, 18 hours, IL-1β, IL-6, TNF-α

Row | Compound | IC50 [1, 4] | IC50 [2, 5] | ED50 [3] | IC50 ([1]; THP-1, 3 h) | IC50 ([2]; 18 h) | IC50 (recombinant human p38α)
1 | Cc1ccc(C(=O)NC2CC2)cc1-c1cc2cnn(-c3c(F)cccc3F)c2n(C)c1=O [Example 7, N-cyclopropyl-3-(1-(2,6-difluorophenyl)-7-methyl-6-oxo-6,7-dihydro-1H-pyrazolo[3,4-b]pyridin-5-yl)-4-methylbenzamide] | ≤ 175 nM | ≤ 125 nM | 0.01 mg/kg |  |  | 
2 | Cc1ccc(C(=O)NC2CC2)cc1-c1cc2cnn(-c3ccc(F)cc3F)c2n(C)c1=O [Example 13, N-cyclopropyl-3-(1-(2,4-difluorophenyl)-7-methyl-6-oxo-6,7-dihydro-1H-pyrazolo[3,4-b]pyridin-5-yl)-4-methylbenzamide] |  |  | 0.02 mg/kg | ≤ 175 nM | ≤ 125 nM | 
3 | Cc1ccc(C(N)=O)cc1-c1cc2cnn(-c3c(F)cccc3F)c2n(C)c1=O [Example 44, 3-(1-(2,6-difluorophenyl)-7-methyl-6-oxo-6,7-dihydro-1H-pyrazolo[3,4-b]pyridin-5-yl)-4-methylbenzamide] | ≤ 175 nM | ≤ 125 nM | 0.07 mg/kg |  |  | 3.4 nM
